Source: publication PMC8347512, “Synthesis and Biological Assessment of 4,1-Benzothiazepines with Neuroprotective Activity on the Ca^2+ Overload for the Treatment of Neurodegenerative Diseases and Stroke” (Molecules, 2021)
pIC50: −log10 of the molar value. Like-named read-outs stand apart in the source and are kept apart here.

Legend:
rat cortical neurons [1] = assay: Per se toxicity, MTT reduction, rat cortical neurons; assay type: cell-based; details: 48 h
Procedure: (§1) The neuroblastoma SH-SY5Y cell line was obtained from the American Type Culture Collection (ATCC-CRL-2266), maintained and cultured in a 1:1 mixture of MEM and F12 media with 10% of fetal bovine serum (FBS), according to procedures previously described. For fluorescence-based [Ca^2+]c measurements, SH-SY5Y cells were seeded in clear-bottomed, 96-well black plates at a density of 40,000 cells/well. For viability assays, SH-SY5Y cells were seeded in 48-well plates at a density of 70,000 cells/well following the procedure recently reported. Rat cortical embryonic neurons were prepared from 19-day-old embryos directly seeded in the plate well treated with poly-D-lysine in neurobasal medium (Gibco 21103, Madrid, Spain) supplemented with 1% of L-glutamine (Sigma, G6392), 0.5% of penicillin/streptomycin and 0.1% of gentamincine. In fluorescence-based [Ca^2+]c measurement, neurons were seed at clear-bottomed, 96-well black plates at a density of 30,000 cells/well. For viability assays, the rat cortical neurons were also seeded in 48-well plates at a density of 40,000 cells/well. All the biological assays were conducted under sterile conditions.
The per se toxicity of the new synthetized compounds was assessed in both cell cultures by the method of MTT reduction. After 24 h of seeding, SH-SY5Y cells were preincubated with compounds at different concentrations (1, 3, 10, and 30 μM) for 24 h. Afterwards, MEM/F12 medium was replaced by one fresh with 1% FBS with the compounds at the same concentration. The viability of cultures was measured 20 h later, following a procedure recently described. In the case of rat cortical neurons, 7 days after seeding, compounds were added to the wells to reach a final concentration of 1, 3, 10, and 30 μM. Forty-eight hours later, neuron viability was measure by the same procedure as the one described for SH-SY5Y cells.

NMDA receptors = assay: Blockade of NMDA-evoked cytosolic Ca2+ elevation (Fluo-4/AM) in rat cortical neurons; assay type: cell-based
Procedure: as §1
To assess the blocking effect of compounds on the VGCC, we used SH-SY5Y cells charged with the Ca^2+-sensitive fluorescent dye Fluo-4/AM at 10 μM in Krebs-HEPES buffer, following a protocol recently described. Compounds were incubated at the desired concentrations (1, 3, 10, and 30 μM). The Ca^2+ entry was favored by addition of K^+ 70 mM to the extracellular medium. […] Rat cortical neurons were charged with Fluo-4/AM at 3 μM in Krebs-HEPES buffer and compounds incubated at same concentrations than before. To stimulate Ca^2+ entry through the NMDA-sensitive glutamate receptors, NMDA was applied at 10 μM. In both cases, fluorescence oscillations as result of the [Ca^2+]c increases were real-time monitored in a multi-well fluorescence plate reader (FluoStar Optima, BMG, Germany), with excitation and emission wavelengths of 485 and 520 nm, respectively. Data were calculated as fluorescence increase (ΔF), according to the formula: ΔF=Fx−Fo /Fmax−Fmin where Fx is the maximum fluorescence obtained after Ca^2+ entry stimulation, F0 is the averaged fluorescence before, Fmax is the maximum fluorescence of the well obtained by treating cells with 5% Triton X-100, and the Fmin is the minimum fluorescence of well obtained by adding MnCl2 1 M to the previously Triton-lysed cells. The ΔF data were normalized respect to the control (ΔFc).

SH-SY5Y cells = assay: Neuroprotection against rotenone/oligomycin A (R/O), MTT, SH-SY5Y cells; assay type: cell-based; details: R/O 30/10 μM, compounds 10 μM
Procedure: as §1
(§2) The effect of compounds on the SH-SY5Y cells and rat cortical neurons viability compromised of different toxics was also evaluated by method of MTT reduction. Twenty-four hours after seeding, SH-SY5Y cells were preincubated with compounds at the concentration of 10 μM for 24 h. Afterwards, MEM/F12 medium was replaced by one fresh with 1% FBS, compounds at the same concentration, and rotenone/oligomycin A administered to media at the concentration of 30/10 μM, respectively. The cultures’ viability was measured 20 h later, following the MTT procedure recently described. As reference neuroprotective compound, melatonin 10 nM was selected. In the case of the rat cortical neurons, 7 days after seeding in 48-well plates, neurons were preincubated adding the compounds at a final concentration of 10 μM for 24 h. Then, toxic stimuli of 50 µM of glutamate was added to the wells. After 20 h, cell viability was measured by the MTT procedure. Here, the reference protective compound used was memantine (30 nM).

VGCC = assay: Blockade of 70 mM K+-evoked cytosolic Ca2+ elevation (Fluo-4/AM) in SH-SY5Y cells; assay type: cell-based; details: for Decrease of K+-evoked Ca2+ signaling compared with nifedipine: compounds 10 μM, nifedipine 10 μM
Procedure: as §1
To assess the blocking effect of compounds on the VGCC, we used SH-SY5Y cells charged with the Ca^2+-sensitive fluorescent dye Fluo-4/AM at 10 μM in Krebs-HEPES buffer, following a protocol recently described. Compounds were incubated at the desired concentrations (1, 3, 10, and 30 μM). The Ca^2+ entry was favored by addition of K^+ 70 mM to the extracellular medium. To evaluate the blocking effect of compounds on NMDA receptors, we have followed a protocol recently reported by our research group. Rat cortical neurons were charged with Fluo-4/AM at 3 μM in Krebs-HEPES buffer and compounds incubated at same concentrations than before. To stimulate Ca^2+ entry through the NMDA-sensitive glutamate receptors, NMDA was applied at 10 μM. In both cases, fluorescence oscillations as result of the [Ca^2+]c increases were real-time monitored in a multi-well fluorescence plate reader (FluoStar Optima, BMG, Germany), with excitation and emission wavelengths of 485 and 520 nm, respectively. Data were calculated as fluorescence increase (ΔF), according to the formula: ΔF=Fx−Fo /Fmax−Fmin where Fx is the maximum fluorescence obtained after Ca^2+ entry stimulation, F0 is the averaged fluorescence before, Fmax is the maximum fluorescence of the well obtained by treating cells with 5% Triton X-100, and the Fmin is the minimum fluorescence of well obtained by adding MnCl2 1 M to the previously Triton-lysed cells. The ΔF data were normalized respect to the control (ΔFc). Data are presented as percentage of blockade (100% ΔF) at the concentration of 10 μM, or as IC50, i.e., the concentration of compound capable of halving the ΔFc (%ΔF = 50).

[2] = Blood-brain barrier permeation assay (PAMPA), porcine brain lipid; assay type: in vitro ADME; details: read-out: Pe, in vitro permeability (PAMPA-BBB)
Procedure: The parallel artificial membrane permeation assay (PAMPA) was used to predict the capacity of compounds to cross the blood–brain barrier (BBB) by passive diffusion, in a similar manner as previously described. Compounds were dissolved in 10 mM phosphate-buffered saline (PBS) buffer (pH 7.4) to the concentration of 100 µM. The filter membrane of the donor 96-well plate (Multiscreen IP sterile clear plate PDVF membrane, pore size […]) was impregnated with 4 µL of porcine brain lipid (PBL) (Avanti Polar Lipids, Inc., Alabaster, AL, USA) in dodecane (20 mg/mL), and after 5 min, 180 µL of each compound solution was added. The acceptor 96-well plate (Multiscreen, Millipore Corp. Burlington, MA, USA) was filled with 180 µL of PBS and 1% of DMSO. Finally, the donor filter plate was carefully put on the acceptor plate to form a “sandwich”, which was left undisturbed for 4 h at rt. After incubation, an UV plate reader determined the concentration of compounds in both acceptor and donor wells (150 µL/well) as the maximum absorption wavelength of each compound. Concentration of the compounds in the donor and acceptor well, and equilibrium concentration were calculated from the standard curve and expressed as the permeability (Pe), according to the following formula: logPe=logC×−ln1−drugacceptor/drugequilibrium whereC=Vdonor×Vaceptor/Vdonor+Vaceptor×Area×Time)
Results are expressed as mean ± SEM of three different experiments in duplicate.

rat cortical neurons [3] = assay: Neuroprotection against glutamate 50 μM, MTT, rat cortical neurons; assay type: cell-based; details: compounds 10 μM
Procedure: as §1, §2

[4] = rat cortical embryonic neurons, NMDA 10 μM, compounds 1 to 30 μM; read-out: IC50, NMDA-evoked [Ca2+]c elevation
[5] = compounds 1 to 30 μM, Fluo-4/AM, read-out: IC50, concentration halving the 70 mM K+-evoked Ca2+ elevation
[6] = porcine brain lipid, pH 7.4, 4 h, rt, Pe ≥ 4 indicates passive BBB crossing

Row | Compound | Effect on cell viability of rat cortical neurons at 30 μM (rat cortical neurons [1]) | pIC50 (NMDA receptors; [4]) | pIC50 (VGCC; [5]) | melting point | further results
1 | CN(C)c1ccc2c(c1)C(c1ccc(F)cc1)SCC(=O)N2 (centres unmarked) [compound 28, 7-Dimethylamino-5-(4′-fluorophenyl)-3,5-dihydro-4,1-benzothiazepin-2-(1H)-one] | slightly reduced cell viability in a significant manner | < 4.52 | 4.71 | 219 to 222 °C | Protection against R/O-induced oxidative stress (in words) (SH-SY5Y cells): clear trend to protect against oxidative stress
2 | O=C1CSC(c2ccncc2)c2cc(Cl)ccc2N1 (centres unmarked) [compound 15, 7-Chloro-5-(pyridin-4-yl)-3,5-dihydro-4,1-benzothiazepin-2-(1H)-one] |  | < 4.52 | 4.70 | 224 to 226 °C | 
3 | CN(C)c1ccc2c(c1)C(c1ccccc1Cl)SCC(=O)N2 (centres unmarked) [compound 26, 5-(2′-Chlorophenyl)-7-dimethylamino-3,5-dihydro-4,1-benzothiazepin-2-(1H)-one] | slightly reduced cell viability in a significant manner | < 4.52 | 4.60 | 178 to 181 °C | Papp at 4 h, 100 µM [2, 6]: < 4 ×10⁻⁶ cm/s; Protection against R/O-induced oxidative stress (in words) (SH-SY5Y cells): clear trend to protect against oxidative stress
4 | O=C1CSC(c2ccncc2Cl)c2cc(Cl)ccc2N1 (centres unmarked) [compound 18, 7-Chloro-5-(3′-chloropyridin-4-yl)-3,5-dihydro-4,1-benzothiazepin-2-(1H)-one] | slightly reduced cell viability in a significant manner | 4.55 | 4.94 | 226 to 229 °C | Papp at 4 h, 100 µM ([2]; pH 7.4, threshold value of 40 nm/s): > 4 ×10⁻⁶ cm/s; Decrease of K+-evoked Ca2+ signaling compared with nifedipine (VGCC): in a similar manner or even better than the reference compound nifedipine
5 | O=C1CSC(c2cccnc2)c2cc(Cl)ccc2N1 (centres unmarked) [compound 16, 7-Chloro-5-(pyridin-3-yl)-3,5-dihydro-4,1-benzothiazepin-2-(1H)-one] |  | < 4.52 | < 4.52 | 224 to 226 °C | 
6 | O=C1CSC(c2ccc([N+](=O)[O-])cc2)c2cc(Cl)ccc2N1 (centres unmarked) [compound 14, 7-Chloro-5-(4′-nitrophenyl)-3,5-dihydro-4,1-benzothiazepin-2-(1H)-one] |  | < 4.52 | 4.52 | 289 to 291 °C | Papp at 4 h, 100 µM [2, 6]: < 4 ×10⁻⁶ cm/s
7 | COc1ccccc1C1SCC(=O)Nc2ccc(N(C)C)cc21 (centres unmarked) [compound 27, 7-Dimethylamino-5-(2′-methoxyphenyl)-3,5-dihydro-4,1-benzothiazepin-2-(1H)-one] | slightly reduced cell viability in a significant manner | 4.73 |  | 233 to 236 °C | Mitigation of the NMDA-elicited Ca2+ increase compared with memantine (NMDA receptors; rat cortical neurons, compounds 10 μM, memantine 10 μM): noticeable mitigation of the NMDA-elicited Ca^2+ increase, even higher than that exerted by the reference compound memantine; Protection against R/O-induced oxidative stress (in words) (SH-SY5Y cells): clear trend to protect against oxidative stress; pIC50 (VGCC; read-out: IC50, concentration halving the 70 mM K+-evoked Ca2+ elevation, compounds 1 to 30 μM, Fluo-4/AM): 4.53
8 | O=C1CSC(c2ccc(F)cc2)c2ccccc2N1 (centres unmarked) [compound 32, 5-(4′-Fluorophenyl)-3,5-dihydro-4,1-benzothiazepin-2-(1H)-one] |  | < 4.52 | 5.04 | 251 to 254 °C | Papp at 4 h, 100 µM [2, 6]: < 4 ×10⁻⁶ cm/s; Protection against glutamate-elicited neurotoxicity (in words) (rat cortical neurons [3]): statistically significant dissipation of the glutamate-elicited neurotoxicity; Decrease of K+-evoked Ca2+ signaling compared with nifedipine (VGCC): in a similar manner or even better than the reference compound nifedipine
9 | COC(=O)C1=C(C)NC(C)=C(C(=O)OC)C1c1ccccc1[N+](=O)[O-] [Nifedipine, nifedipine, reference compound] |  |  | 4.82 |  | 
10 | O=C1CSC(c2ccccn2)c2cc(Cl)ccc2N1 (centres unmarked) [compound 17, 7-Chloro-5-(pyridin-2-yl)-3,5-dihydro-4,1-benzothiazepin-2-(1H)-one] |  | < 4.52 | 4.61 | 215 to 217 °C | 
11 | CC12CC3CC(C)(C1)CC(N)(C3)C2 [Memantine, memantine, reference compound] |  |  |  |  | pIC50 (NMDA receptors; read-out: IC50, NMDA-evoked [Ca2+]c elevation; rat cortical embryonic neurons, NMDA 10 μM, compounds 1 to 30 μM): 4.77
